# Test results as given in article PMC9147790, “Synthesis of Coumarin Derivatives: A New Class of Coumarin-Based G Protein-Coupled Receptor Activators and Inhibitors” (Polymers, 2022).
# Read-outs that look alike come from different tables or passages of the source.
# What was measured:
# [1] = tested on: mouse GPCRs; assay: DAS-ELISA evaluation of coumarin derivatives on GPCRs (inhibition/activation); assay type: biochemical; conditions: for IC50: concentration achieving 50% inhibition of the GPCRs' standard at 10 ng/L; for IC50 / EC50: mean of two independent experiments ± SD; for EC50: concentration achieving 50% activation of the GPCRs' standard at 10 ng/L; for IC50(nM) (% INHIBITION): % inhibition (inhibition rate): value in parentheses beside the > IC50 bound, daphnetin: at 10 ng/L; for EC50(nM) (% Activation): % Activation: value in parentheses beside the > EC50 bound; for GPCR activation potency (in words) / GPCRs-inhibitory activity (in words): DAS-ELISA
# Description: All chemicals and reagents used in the study were commercially available and used as received. Thin-layer chromatography (TLC) and column chromatography (300–400 mesh) were achieved using instruments from Qingdao Makall Group Co., Ltd. (Qingdao, China). ^1H NMR and ^13C NMR spectra were recorded on a Bruker DRX-500 (^1H/^13C, 500 MHz/125 MHz) spectrometer (Bruker, Bremerhaven, Germany) or a JEOL 400YH (^1H/^13C, 400 MHz/100 MHz) and chemical shifts were given in δ with the TMS as an internal reference. The ESI-MS spectroscopy was measured on an Advantage Max LCQ Thermo-Finnigan mass spectrometer. The ELISA kit was purchased from Shanghai Fusheng Industry Co., Ltd. (Shanghai, China), and the standard in the kit was Class B GPCRs.
# All the synthesized coumarin derivatives were dissolved in 500 μL of DMSO, and then diluted to 1 mL by distilled water to get 1 mg/mL of stock solution. Finally, the stock solution was diluted to 1000 μg/L, 10 μg/L, 0.1 μg/L, and 0.001 μg/L in turn and stored in a refrigerator at 4 ℃ for reserve.
# The inhibitory/activation activities of all of the synthesized coumarin derivatives on GPCRs were evaluated through incubation using mouse GPCRs provided by the ELISA kit (Shanghai Fusheng Industrial Co., Ltd. Shanghai, China). Other components of the kit included a water solution (30 times concentrated), a HRP conjunction reagent, a sample diluent, a standard diluent, standard, a chromogenic reagent A, a chromogenic reagent B, and a stop solution.
# The 15 μL of stock solution and 15 μL of diluted standard solution were thoroughly mixed and incubated at 37 ℃ for 10 mins to prepare a reaction solution. The assay was conducted according to the kit protocol, that is, by adding the 25 μL of reaction solution to a 96-well enzyme-labeled plate containing solid phase anti-GPCRs antibodies. Then the plate was incubated for 30 mins at 37 ℃. Then, 25 μL of Chromogener A and 25 μL of Chromogener B were then added to react. Finally, 25 μL of the termination solution was added to each well to terminate the reaction and the mixture was fully mixed. Derivatives were tested in four different concentrations: 10 ng/L, 1 ng/L, […], and 10 μg/L. A diluent was prepared, dissolved and diluted with the other components of the kit according to the instructions in the kit, and a termination solution was added to the reaction. Then, the OD value was obtained by a microplate reader in 15 mins. All the derivatives were set into two independent experimental groups, and the inhibition of GCPRs, which was expressed as a percentage, was based on these groups.
# Inhibition rate = [OD(positive) − OD(test compound)]/[OD(positive) − OD(blank)] ∗ 100%.
# IC50/EC50 were obtained from Modified Karber formula [66] as the following: lgρ=Xm−IP−3−Pm−Pn/4
# ρ: Concentration of compounds; Xm: Maximum dose; I = (Minimum inhibition rate)/Adjacent dose.
# P: Sum of inhibition rates; Pm: Maximum inhibition rate; Pn: Minimum inhibition rate.
# All values are the mean of two independent experiments ± SD.
# [2] = tested on: mouse GPCRs; parameters: method as in PMID 33142412; conditions: earlier work shown in Figure 2; cited from earlier work
IC50 [1] [nM],EC50 [1] [nM],Molecule,other results
0.76 ± 0.7,,4-Benzyl-7-ethoxy-4-methyl-2H-chromen-2-one [Derivative 23],
,2.65 ± 0.25,"Cc1cc(=O)oc2c(O)c(O)ccc12 [4a, reference compound]",
> 10,,"O=c1ccc2ccc(O)c(O)c2o1 [Daphnetin, daphnetin, reference compound]",IC50(nM) (% INHIBITION): % inhibition (inhibition rate) [1]: 49.43%; EC50 [2]: > 10 nM; Inhibition rate (in Figure 2) [2]: 49.43%
,0.56 ± 0.02,"O=c1cc(-c2ccc(F)cc2)c2ccc(O)c(O)c2o1 [Derivative 1, 4-(4-Fluorophenyl)-7,8-dihydroxy-2 H-chromen-2-one]",
,> 43.8,"O=c1cc(C(F)F)c2ccc(O)c(O)c2o1 [Derivative 2, 4-(Difluoromethyl)-7,8-dihydroxy-2H-chromen-2-one]",EC50(nM) (% Activation): % Activation [1]: 39.82%
,> 43.8,"O=c1cc(-c2ccccc2)c2ccc(O)c(O)c2o1 [Derivative 3, 7,8-Dihydroxy-4-phenyl-2H-chromen-2-one]",EC50(nM) (% Activation): % Activation [1]: 35.75%
0.15 ± 0.01,,"CCc1cc(=O)oc2c(O)c(O)ccc12 [Derivative 4, 4-Ethyl-7,8-dihydroxy-2H-chromen-2-one]",GPCR activation potency (in words) [1]: completely lost their GPCRs-activation potency
3.77 ± 0.58,,"CCCc1cc(=O)oc2c(O)c(O)ccc12 [Derivative 5, 7,8-Dihydroxy-4-propyl-2H-chromen-2-one]",GPCR activation potency (in words) [1]: completely lost their GPCRs-activation potency
0.02 ± 0.01,,"CC(=O)Oc1ccc2c(CCl)cc(=O)oc2c1OC(C)=O [Derivative 7, 4-(Chloromethyl)-2-oxo-2H-chromene-7,8-diyl diacetate]",GPCR activation potency (in words) [1]: no GPCR activation potency
6.86 ± 0.04,,"CCC(=O)Oc1ccc2c(CCl)cc(=O)oc2c1OC(=O)CC [Derivative 8, 4-(Chloromethyl)-2-oxo-2H-chromene-7,8-diyl dipropionate]",GPCR activation potency (in words) [1]: no GPCR activation potency
1.25,1.25 ± 0.89,"Cc1cc(=O)oc2cc(O)ccc12 [Derivative 9, 7-Hydroxy-4-methyl-2H-chromen-2-one]",GPCRs-inhibitory activity (in words) [1]: no GPCRs-inhibitory activity
> 48.5,,"COc1cc(=O)oc2cc(O)ccc12 [Derivative 10, 7-Hydroxy-4-methoxy-2H-chromen-2-one]",IC50(nM) (% INHIBITION): % inhibition (inhibition rate) [1]: 33.58%
,1.28 ± 1.07,"CCc1c(C)c2ccc(O)cc2oc1=O [Derivative 11, 3-Ethyl-7-hydroxy-4-methyl-2H-chromen-2-one]",
,1.07 ± 0.33,"Cc1c(C)c2ccc(O)cc2oc1=O [Derivative 12, 7-Hydroxy-3,4-dimethyl-2H-chromen-2-one]",
7.75 ± 7.23,,"O=c1cc(C(F)(F)F)c2ccc(O)cc2o1 [Derivative 13, 7-Hydroxy-4-(trifluoromethyl)-2H-chromen-2-one]",
,0.03 ± 0.02,"Cc1c(Cl)c(=O)oc2cc(O)ccc12 [Derivative 14, 3-Chloro-7-hydroxy-4-methyl-2H-chromen-2-one]",
3.6,3.6 ± 0.11,"Cc1c(Cc2ccccc2)c(=O)oc2cc(O)ccc12 [Derivative 15, 3-Benzyl-7-hydroxy-4-methyl-2H-chromen-2-one]",
,0.24 ± 0.21,"Cc1c(F)c(=O)oc2cc(O)ccc12 [Derivative 16, 3-Fluoro-7-hydroxy-4-methyl-2H-chromen-2-one]",
,0.03 ± 0.02,"Cc1c(C#N)c(=O)oc2cc(O)ccc12 [Derivative 17, 7-Hydroxy-4-methyl-2-oxo-2H-chromene-3-carbonitrile]",
,0.03 ± 0.01,"CCc1cc(=O)oc2cc(O)ccc12 [Derivative 18, 4-Ethyl-7-hydroxy-2H-chromen-2-one]",GPCRs-inhibitory activity (in words) [1]: no GPCRs-inhibitory activity
,4.22 ± 3.49,"O=c1cc(CCl)c2ccc(O)cc2o1 [Derivative 19, 4-(Chloromethyl)-7-hydroxy-2H-chromen-2-one]",GPCRs-inhibitory activity (in words) [1]: no GPCRs-inhibitory activity
,> 42,"O=c1cc(-c2ccccc2)c2ccc(O)cc2o1 [Derivative 20, 7-Hydroxy-4-phenyl-2H-chromen-2-one]",EC50(nM) (% Activation): % Activation [1]: 34.41%
0.02,0.02 ± 0.01,"Cc1cc(=O)oc2cc(Oc3ccnc(Cl)n3)ccc12 [Derivative 21, 7–((2–chloropyrimidin–4–yl)oxy)–4–methyl–2H–chromen–2–one]",
9.67 ± 2.59,,"COc1ccc2c(C)c(Cc3ccccc3)c(=O)oc2c1 [Derivative 22, 3-Benzyl-7-methoxy-4-methyl-2H-chromen-2-one]",
,> 35.7,"CC(=O)Oc1ccc2c(C)c(Cc3ccccc3)c(=O)oc2c1 [Derivative 24, 3-Benzyl-4-methyl-2-oxo-2H-chromen-7-yl acetate]",EC50(nM) (% Activation): % Activation [1]: 32.82%
,12 ± 9.47,"CCC(=O)Oc1ccc2c(C)c(Cc3ccccc3)c(=O)oc2c1 [Derivative 25, 3-Benzyl-4-methyl-2-oxo-2H-chromen-7-yl propionate]",
